In patent US20230219957A1, “SMALL MOLECULE CB002-ANALOGES RESTORE THE P53 PATHWAY AND TARGET S-PHASE CHECKPOINT” (Brown University, priority 2020, published 2023):

Columns and labels:
Format in all cases: cell-based, human
HCT116 p53 R273H = experiment: CellTiter-Glo (Cell-Titer glow) cytotoxicity assay; conditions: forty-eight hours
Experimental: (§1) CellTiter-Glo® luminescent cell viability assay. Cells were seeded in 96-well plates at a density of 5×10^3 cells per well. 20 μL of CellTiter-Glo® Reagent was added directly to the wells, following the manufacturers protocol. The bioluminescence signal was determined using an IVIS imaging system, optionally at a period of 48-72 hours after treatment.
(§2) CB002-analog #4 is a potent anti-tumor agent in vitro and in vivo. The inventors focused on lead CB002-analog #4 and investigated its therapeutic index in vitro and in vivo. The inventors treated an isogenic HCT116 cell line panel with 100 μM CB002 or 25 μM CB002-analog #4 and established IC50 values by the Cell-Titer glow cytotoxicity assay. Across this panel, CB002-analog #4 has a 20-fold to 30-fold range in IC50 values, independently of the HCT116 p53-status.

HCT116 p53−/− = experiment: CellTiter-Glo (Cell-Titer glow) cytotoxicity assay; conditions: forty-eight hours
Experimental: as §1, §2

HCT116 p53+/+ = experiment: CellTiter-Glo (Cell-Titer glow) cytotoxicity assay; conditions: forty-eight hours
Experimental: as §1, §2

SW480 colon cancer cells [1] = experiment: Propidium iodide / BrdU cell cycle analysis of synchronized cells
Experimental: (§3) Cell synchronization. Synchronized cells were synchronized by double thymidine block. Cells were treated with […] thymidine for sixteen hours. The drug was removed and replaced by complete growth media for eight hours. Cells were treated for the second time with […] thymidine for sixteen hours. At this point, cells were treated and harvested.
Propidium iodide and BrdU flow cytometry assay. Cells were seeded at a density of 5×10^5 in a 6-well plate and treated for forty-eight to seventy-two hours. After treatment, floating cells were collected, and adherent cells were trypsinized, pelleted, washed with phosphate-buffered saline, and fixed in 70% ethanol overnight. For propidium iodide (PI) based Sub-G1 apoptosis analysis, cells were spun down after fixation and resuspended in phosphate-citric acid buffer (0.2M Na2HPO4+0.1M Citric Acid, pH 7.8) at room temperature for five minutes. The cell pellet was resuspended for staining with 50 μg/mL PI and 250 μg/mL ribonuclease (RNase A). For BrdU analysis, after cell fixation, cells were spun down and resuspended in one mL of 2N HCL with 0.5% Triton X-100 for thirty minutes at room temperature. Cells were pelleted, washed with phosphate-buffered saline, and resuspended in 20 μL BrdU antibody (BD Biosciences, cat no. 347580) diluted in 0.5% Tween 20/PBS/5% bovine serum albumin for thirty minutes at room temperature. Cells were then spun down and resuspended in 140 μg/mL goat-anti mouse Alexa Fluor 488 (#A-11008, Thermo Fisher Scientific, Waltham, Mass., USA) in 0.5% Tween 20 in phosphate-buffered saline/5% bovine serum albumin for thirty minutes at room temperature. Cells were then spun down and resuspended in 5 μg/mL PI: 250 μg/mL RNase A solution. Samples were analyzed on an Epics Elite Epics flow cytometer (Coulter-Beckman).
BrdU analysis gating. Cell aggregates were gated out in the PI Peak vs DNA PI histogram. BrdU lower limit intensity was set on the upper limit of the negative control. The no BrdU antibody assays and no goat-anti mouse Alexa Fluor 488 antibody assays were the negative controls. […] Gating was held constant throughout the samples within a given assay.

SW480 colon cancer cells [2] = experiment: Immunoblot of cell cycle markers; conditions: for M-phase marker pH3(Ser10) / pcdc2(Tyr15) and pcdc25c(Ser16) expression: combination with etoposide; for S-phase marker p-RPA-RPA2(S8) expression: synchronized SW480, time-course after release
Experimental: Immunoblotting (additional method). After treatment, floating cells were collected, and adherent cells were trypsinized, washed with phosphate-buffered saline, and lysed with RIPA buffer (Sigma-Aldrich, St. Louis, Mo., USA) for thirty minutes to one hour at 4° C. Protein lysates were pelleted. The supernatant was collected. Total protein per sample was determined using a Pierce™ BCA Protein Assay Kit (Thermo Fisher Scientific, Waltham, Mass., USA). Proteins were denatured using 1× NuPAGE® LDS sample buffer (Thermo Fisher Scientific, Waltham, Mass., USA) and reduced with 2-mercaptoethanol (Sigma-Aldrich, St. Louis, Mo., USA). Protein lysates were boiled for fifteen min at 95° C. After protein normalization, samples were loaded into NuPAGE™ Novex™ 4-12% Bis-Tris Protein Gels (Thermo Fisher Scientific, Waltham, Mass., USA). Gel electrophoresis was performed with NuPAGE™ MES SDS Running Buffer. Proteins were transferred onto an Immobilon-P membrane (PVDF, EMD Millipore, Taunton, Mass., USA) using a Bio-Rad system with a 10% Tris-Glycine and 10% methanol transfer buffer diluted in distilled and deionized water. Membranes were blocked with 10% milk in Tris-buffered saline with Tween 20 (TBST) solution. The membranes were incubated overnight with the primary antibody, washed with TBST, and incubated with secondary antibody for one hour. Primary antibody incubations were performed in 5% milk or 5% bovine serum albumin in TBST solution as per manufacturer instructions. Signal was detected using a chemiluminescent detection kit, followed by autoradiography. The following antibodies were used: p53 (1:1000, #sc-126, Santa Cruz Biotechnology, Santa Cruz, Calif., USA), p73 (1:1000, #A300-126A, Bethyl Laboratories), Noxa (1:250, #OP180, EMD Millipore, Taunton, Mass., USA), DR5 (#3696), cleaved PARP (#9546), phospho-RPA32/RPA2 (#54762), p-cdc2 (#9111), p-cdc25c, pH3 (#3377) (1:1,000; Cell Signaling Technology, Inc., Danvers, Mass. USA) and β-actin (1:10000, A5441, Sigma).
as §3

Row | SMILES | IC50 (HCT116 p53 R273H) [µM] | IC50 (HCT116 p53−/−) [µM] | IC50 (HCT116 p53+/+) [µM] | S-phase accumulation (SW480 colon cancer cells [1]; eight hours following release from synchronization) | increase of cells in S-phase (SW480 colon cancer cells [1]; twelve hours, PI and BrdU co-staining, compared to DMSO vehicle control) [%] | G2-phase cells versus etoposide (SW480 colon cancer cells [1]; twenty-four hours) | M-phase marker pH3(Ser10) (SW480 colon cancer cells [2]; synchronized SW480) | pcdc2(Tyr15) and pcdc25c(Ser16) expression (SW480 colon cancer cells [2]; synchronized SW480) | pcdc2(Tyr15) and pcdc25c(Ser16) protein expression (SW480 colon cancer cells [2]; single agent, synchronized SW480) | S-phase marker p-RPA-RPA2(S8) expression (SW480 colon cancer cells [2]) | p21 (SW480 colon cancer cells [2]; time-course after synchronization release) | Cyclin A expression (SW480 colon cancer cells [2]; time-course, compared to DMSO and etoposide) | IC50 (HCT116 p53 R273H; Homo sapiens, HCT-116) [µM] | IC50 (HCT116 p53−/−; Homo sapiens, HCT-116) [µM] | IC50 (HCT116 p53+/+; Homo sapiens, HCT-116) [µM] | S-phase delay, difference (SW480 colon cancer cells [1]; six-eight hours of treatment, combined with etoposide) [fold]
1 | Cn1c(=O)c2[nH]c(Nc3cccc(C(F)(F)F)c3)nc2n(C)c1=O [CB002-analog #4] | 8.09 | 8.83 | 8.69 | S-phase accumulation | 30 | no significant differences | does not increase | decrease in expression | decreased | increased compared to DMSO | increase | did not decrease over time | – | – | – | –
2 | Cn1c(=O)c2[nH]c(Nc3ccccc3)nc2n(C)c1=O [CB002] | – | – | – | – | – | – | does not increase | decrease in expression | – | increase | – | – | 140 | 161 | 242 | 2
